# Test results taken from patent publication US12404232B2, “Compounds and compositions for intracellular delivery of therapeutic agents” (ModernaTX, Inc., priority 2015, dated 2025).
# Key:
# [1] = tested on: mice; test: Cytokine induction (IL-6, IP-10) in mice after intravenous administration; assay type: in vivo; set-up: IL-6 / IP-10: unit not given here; conditions: 0.5 mpk, 6 hours
# Source text: The introduction of foreign material into a mammalian body induces an innate immune response that promotes cytokine production. Such immune responses to, for example, nanoparticle compositions including therapeutic and/or prophylactics, are undesirable. The induction of certain cytokines is thus measured to evaluate the […] of nanoparticle compositions. The concentrations of various cytokines in mice upon intravenous administration of nanoparticle compositions presented in Table 1A at a dosage of 0.5 mpk was measured at 6 hours. The standard MC3 formulation and a PBS control were also tested. As is evident in Table 7, IL-6 induction was highest for compositions including Compounds 1, 3, 9, 19, and 26, while IP-10 induction was highest for compositions including Compounds 3, 4, 7, 20, and 26. IL-6 induction was lowest for compositions including Compounds 4, 11, 12, and 28. IP-10 induction was lowest for compositions including Compounds 10, 11, 12, 13, 15, 17, and 18.
# The expression of hEPO and cytokine induction in mice intravenously administered a nanoparticle composition at a dose of 0.5 mpk were measured at 3, 6, and 24 hours. […] The expression of hEPO in mice intramuscularly administered a nanoparticle composition from Table 1B at a dose of 0.01 mpk were measured at 3, 6, and 24 hours. […] (see also FIG. 9.)
# [2] = Particle size and polydispersity index of nanoparticle compositions (Zetasizer Nano ZS); assay type: physicochemical; conditions: for Size (nm): nanoparticle composition lipid:DSPC:cholesterol:PEG-DMG 50:10:38.5:1.5 mol %, mRNA encoding Luc or hEPO (Table 1A); for PDI: nanoparticle composition 50:10:38.5:1.5 mol % (Table 1A)
# Source text: Nanoparticle compositions may be characterized by a variety of methods. For example, microscopy (e.g., transmission electron microscopy or scanning electron microscopy) may be used to examine the morphology and size distribution of a nanoparticle composition. Dynamic light scattering or potentiometry (e.g., potentiometric titrations) may be used to measure zeta potentials. Dynamic light scattering may also be utilized to determine particle sizes. Instruments such as the Zetasizer Nano ZS (Malvern Instruments Ltd, Malvern, Worcestershire, UK) may also be used to measure multiple characteristics of a nanoparticle composition, such as particle size, polydispersity index, and zeta potential.
# A Zetasizer Nano ZS (Malvern Instruments Ltd, Malvern, Worcestershire, UK) can be used to determine the particle size, the polydispersity index (PDI) and the zeta potential of the nanoparticle compositions in 1×PBS in determining particle size and 15 mM PBS in determining zeta potential.
# Initial studies were performed to compare the delivery efficiency of nanoparticle compositions including various compounds according to Formula (I), (IA), (II), (IIa), (IIb), (IIc), (IId) or (IIe). The cationic lipid MC3 is a current standard in the art. Accordingly, the standard MC3 formulation including about 50 mol % MC3, about 10 mol % DSPC, about 38.5 mol % cholesterol, and about 1.5 mol % PEG-DMG was used as a basis for this study. Nanoparticle compositions including DSPC as a phospholipid, cholesterol as a structural lipid, PEG-DMG as a PEG lipid, an RNA, and a compound according to Formula (I), (IA), (II), (IIa), (IIb), (IIc), (IId) or (IIe) selected from Compounds 1-159, 168-170, and 173-175 were prepared according to or via methods similar to those described in Examples 1 and 2. The ratios of the lipids were 50:10:38.5:1.5 mol % for the lipid according to Formula (I), (IA), (II), (IIa), (IIb), (IIc), (IId) or (IIe):DSPC:cholesterol:PEG-DMG. The RNA used was an mRNA encoding G5 luciferase (Luc) or G5 hEPO. Tables 1A-1B summarize the content and characteristics of the formulations. […]
# [3] = tested on: mice; test: Luc expression (bioluminescence, total flux) after intravenous administration to mice; assay type: in vivo
# Method: (§1) In order to monitor how effectively various nanoparticle compositions deliver therapeutic and/or prophylactics to targeted cells, different nanoparticle compositions including a particular therapeutic and/or prophylactic (for example, a modified or naturally occurring RNA such as an mRNA) are prepared and administered to rodent populations. Mice are intravenously, intramuscularly, intraarterially, or intratumorally administered a single dose including a nanoparticle composition with a formulation such as those provided in Example 3. In some instances, mice may be made to inhale doses. Dose sizes may range from 0.001 mg/kg to 10 mg/kg, where 10 mg/kg describes a dose including 10 mg of a therapeutic and/or prophylactic in a nanoparticle composition for each 1 kg of body mass of the mouse. A control composition including PBS may also be employed.
# Upon administration of nanoparticle compositions to mice, dose delivery profiles, dose responses, and toxicity of particular formulations and doses thereof can be measured by enzyme-linked immunosorbent assays (ELISA), bioluminescent imaging, or other methods. For nanoparticle compositions including mRNA, time courses of protein expression can also be evaluated. Samples collected from the rodents for evaluation may include blood, sera, and tissue (for example, muscle tissue from the site of an intramuscular injection and internal tissue); sample collection may involve sacrifice of the animals.
# The efficacy of the nanoparticle compositions presented in Table 1A was evaluated with a bioluminescence study. Formulations were administered intravenously to mice (n=6) at a dosage of 0.5 mg/kg (mpk) and bioluminescence measured at 3, 6, and 24 hour time points. The standard MC3 formulation and, in some instances, a control (e.g., a PBS control) were evaluated for comparison. […] In general, flux decreased as time progressed to less than 10% of the initial flux.
# (§2) The total flux (measured by area under the curve, AUC) induced by administration of a formulation including a given lipid relative to that induced by administration of a formulation including MC3 was also measured for several lipids.
# The tolerability and efficacy of nanoparticle compositions to non-human primates was also investigated using sample formulations including Compounds 18, 25, 26, and 48 and MC3 to determine if these compounds are differentiated in terms of protein expression. The formulations were prepared according to the standard MC3 formulation described above and included an hEPO mRNA. Table 30 includes details of the compositions tested, while Table 31 summarizes the relative expression of Luc and hEPO mRNA in mice and rats. Expression was measured 6 hours after administration.
# [4] = tested on: mice; test: Luc expression (total flux) after intramuscular administration; assay type: in vivo; conditions: 6 hours after intramuscular administration, Luc mRNA and H10 mRNA
# Method: The numbers 1-7 in this figure correspond to MC3, Compounds 168-170, and 173-175 respectively.
# as §1, §2
# Sample formulations including both modified luciferase (Luc) mRNA and H10 mRNA were prepared and administered intramuscularly and the resulting expression and immunogenicity were evaluated simultaneously. Formulations including compounds according to Formula (I), (IA), (II), (IIa), (IIb), (IIc), (IId) or (IIe) were prepared and administered at doses of 0.001 and 0.01 mpk (e.g., doses of 0.0005 mpk of a formulation including Luc mRNA and a formulation including H10 mRNA or doses of 0.005 mpk of a formulation including Luc mRNA and a formulation including H10 mRNA).
# Sample formulations including modified luciferase (Luc) mRNA prepared and administered intramuscularly and the resulting expression and immunogenicity were evaluated simultaneously. Formulations including compounds according to Formula (I), (IA), (II), (IIa), (IIb), (IIc), (IId) or (IIe) were prepared and administered at dose of […] 0.01 mpk.
# The fluxes measured upon intravenous and intramuscular administration are compared in Table 6. Fluxes are presented as fold increase over that measured for MC3 formulations.
IL-6 [1],Size (nm) [2],PDI [2],SMILES,Total flux (p/s) 0.001 mpk Dose [4],Total flux (p/s) 0.01 mpk Dose [4],further results
126.83,111.5 nm,,"CCCCCCCCCOC(=O)CCCCCCCN(CCCCO)CCCCCCCC(=O)OC(CCCCCCCC)CCCCCCCC [Compound 20, Heptadecan-9-yl 8-((4-hydroxybutyl)(8-(nonyloxy)-8-oxooctyl)amino) octanoate]",,,
,,,"CCCCCCCCC(CCCCCCCC)OC(=O)CCCCCCCN(CCO)CCCCCCCC(=O)OC(C)(C)C [Compound 155, tert-Butyl 8-((8-(heptadecan-9-yloxy)-8-oxooctyl)(2-hydroxyethyl)amino)octanoate]",,,AUC (p/s*h) ([3]; Luc total flux (Table 3D)): 1.266E+011 p/s*h
,,,"CCCCCCCCCOC(=O)CCCCCCCN(CCCCCCCC(=O)OC(CCCCCCCC)CCCCCCCC)CCN1CCOCC1 [Compound 103, Heptadecan-9-yl 8-((2-morpholinoethyl)(8-(nonyloxy)-8-oxooctyl)amino)octanoate]",,,"6 h Lipid/MC3 G.M. Luc Expression ([3]; i.v. administration, 6 h, geometric mean): 0.171; AUC (h*p/s) ([3]; i.v. administration, total Luc flux (Table 3C)): 2.4E+10 h*p/s"
,85.7 nm,0.12,"CCCCCCCCCOC(=O)CCCCCCCN(CCCCCCCC(=O)OC(CCCCCCCC)CCCCCCCC)CCCNC(=O)NC [Compound 112, Heptadecan-9-yl 8-((3-(3-methylureido)propyl)(8-(nonyloxy)-8-oxooctyl)amino)octanoate]",,,
,89.1 nm,0.11,"CCCC/C=C\CCC(CC/C=C\CCCC)OC(=O)CCCCCCCN(CCO)CCCCCC(=O)OCCCCCCCCCCC [Compound 61, (5Z,12Z)-heptadeca-5,12-dien-9-yl 8-((2-hydroxyethyl)(6-oxo-6-(undecyloxy)hexyl)amino)octanoate]",,,
,69.2 nm,0.15,"CCCCCCCCCOC(=O)CCCCCCCN(CCCCCCCC(=O)OC(CCCCCCCC)CCCCCCCC)CCCNC(=S)NC [Compound 113, Heptadecan-9-yl 8-((3-(3-methylthioureido)propyl)(8-(nonyloxy)-8-oxooctyl)amino)octanoate]",,,
,69.4 nm,0.14,"CCCCCCCCC(CCCCCCCC)OC(=O)CCCCCCCN(CCO)CCCCCC(=O)OC(CCCCCCCC)C1CC1 (stereo not shown) [Compound 128, Heptadecan-9-yl 8-((6-((1-cyclopropylnonyl)oxy)-6-oxohexyl)(2-hydroxyethyl)amino)octanoate]",,,
,65.4 nm,0.11,"CCCCCCCCC(CC)OC(=O)CCCN(CCO)CCCCCCCC(=O)OC(CCCCCCCC)CCCCCCCC (stereo not shown) [Compound 72, Heptadecan-9-yl 8-((2-hydroxyethyl)(4-oxo-4-(undecan-3-yloxy)butyl)amino)octanoate]",,,
69.54,,,"CCCCCCCCC(CCCCCCCC)OC(=O)CCCCCCCN(CCO)CCCCCCCC(=O)OC(CCCCCCCC)CCCCCCCC [Compound 29, Di(heptadecan-9-yl) 8,8′-((2-hydroxyethyl)azanediyl)dioctanoate]",7.64E+05 p/s,1.12E+07 p/s,IP-10 [1]: 1362.81
116.35,,,"CCCCCCCCCN(CCCO)CCCCCCCC(=O)OC(CCCCCCCC)CCCCCCCC [Compound 7, Heptadecan-9-yl 8-((3-hydroxypropyl)(nonyl)amino)octanoate]",3.65E+06 p/s,7.48E+07 p/s,
94.07,,,"CCCCCCCCC(CCCCCCCC)OC(=O)CCCCCCCN(CCO)CCCCCC [Compound 5, Heptadecan-9-yl 8-(hexyl(2-hydroxyethyl)amino)octanoate]",9.84E+05 p/s,3.55E+06 p/s,IP-10 [1]: 487.16
,,,"CCCCCCCCC(CCCCCCCC)OC(=O)CCCCCCCN(CCO)CCCCCCCC(=O)OCC1CC1CCCCCC (stereo not shown) [Compound 28, Heptadecan-9-yl 8-((8-((2-hexylcyclopropyl)methoxy)-8-oxooctyl)(2-hydroxyethyl)amino)octanoate]",6.73E+05 p/s,5.56E+06 p/s,IP-10 [1]: 283.13
,118 nm,0.13,"CCCCCCCCCOC(=O)CCCCCCCN(CCCCCCCC(=O)OC(CCCCCCCC)CCCCCCCC)CCCNC(=O)N(C)C [Compound 110, Heptadecan-9-yl 8-((3-(3,3-dimethylureido)propyl)(8-(nonyloxy)-8-oxooctyl)amino)octanoate]",,,
319.46,,,"CCCCCCCCCOC(=O)CCCCCCCN(CCO)CCCCCCCC(=O)N(CCCCCCCC)CCCCCCCC [Compound 144, Nonyl 8-((8-(dioctylamino)-8-oxooctyl)(2-hydroxyethyl)amino)octanoate]",2.72E+06 p/s,2.18E+07 p/s,IP-10 [1]: 4220.55
,64.2 nm,0.10,"CCCCCCCCC(CC)OC(=O)CCCCCN(CCO)CCCCCCCC(=O)OC(CCCCCCCC)CCCCCCCC (stereo not shown) [Compound 75, Heptadecan-9-yl 8-((2-hydroxyethyl)(6-oxo-6-(undecan-3-yloxy)hexyl)amino)octanoate]",,,
